Here are results for 2 molecules from US20190127775A1 (priority 2016, published 2019).

Test [1] relates to methicillin resistant Staphylococcus aureus (MRSA; ATCC # 43300). As to the kind of experiment: Whole cell anti-MRSA growth inhibition screen (OD590) of Un-Met and Pre-Met library plates. It is filed as cell-based. As to the method: Next, a copy of the library in its un-metabolized form and a copy of the library in its pre-metabolized form were created. The buffer used for library metabolism was (4×=4 times the concentration of each component in the final solution): 4× KPMEN Buffer: 200 mM KH2PO4; 4 mM K2EDTA; 20 mM glucose-6-phosphate, disodium salt (G6P); 4 mM NADPH, tetrasodium salt; pH adjusted to 7.4 with 1 M KOH. To each well in 1 set of the Reconstituted Copy Plates was added 45 μL 1.1× KEPNM Buffer to give 1 set of unmetabolized (“Un-Met”) Library Plates. […] Both sets of plates were incubated at room temperature for 24 hours with gentle rocking to provide 1 set of Un-Met Library Plates and 1 set of Pre-Met Library Plates. […]
Antibacterial activity screening was performed using methicillin resistant Staphylococcus aureus (MRSA; ATCC # 43300). […] The optical density of each well was then read at 590 nm (0D590) using a TECAN SpectraFluor Plus microtiter plate reader (Artisan Technology Group, Champaign, Ill.). These plates were also read prior to addition of bacteria to identify wells with compounds with a high OD590, so that these well could be examined manually for turbidity post bacterial growth, since a high prior OD590 would interfere with post bacterial growth OD590 measurement. […]

For test [2] the following is noted: un-metabolized parent; only active after metabolic conversion into sulfanilamide; cited from earlier work.

`COc1ccc2c(c1)[C@]13CCCC[C@@H]1[C@H](C2)N(C)CC3` [dextromethorphan]: the “anti-MRSA activity in the Pre-Met plates” value in test [1] (Pre-Met plates (human liver microsomes), cutoff OD590 0.18, 24 hours 35° C.) is listed as “not in the Pre-Met plates”. Besides, in test [1] (Un-Met plates, cutoff OD590 0.15, 24 hours 35° C.), the “anti-MRSA activity in the Un-Met plates” value is “had anti-MRSA activity”.
Take `Nc1ccc(/N=N/c2ccc(S(N)(=O)=O)cc2)c(N)c1` [protosil, prontosil]: the “antibacterial activity in vitro” value in test [2] is “inactive in vitro”.
